21 compounds from PubChem BioAssay AID256 (DTP/NCI, 2004) can be followed below.

In the assay the test system is CD2F1 mice, L1210 leukemia ip, survival T/C. Kind of assay: NCI In Vivo Anticancer Drug Screen. Data for tumor model L1210 Leukemia (intraperitoneal) in CD2F1 (CDF1) mice. Conditions: endpoint: mean survival time, higher = longer survival. The procedure, abridged: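 Each value reflects a quotient of treated over vehicle control outcomes in mice with a transplanted tumor.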

Setting [1] is: dose: 100.0 mg/kg/injection, schedule: Q04DX002 (ip), vehicle: saline with Tween-80.
[2] abbreviates: dose: 200.0 mg/kg/injection, schedule: Q04DX002 (ip), vehicle: saline with Tween-80.
Where [3] appears, read: dose: 400.0 mg/kg/injection, schedule: Q04DX002 (ip), vehicle: saline with Tween-80.
The mark [4] stands for this setting: dose: 25.0 mg/kg/injection, schedule: Q01DX009 (ip), vehicle: saline with Tween-80.
The mark [5] stands for this setting: dose: 50.0 mg/kg/injection, schedule: Q01DX009 (ip), vehicle: saline with Tween-80.
The mark [6] stands for this setting: dose: 100.0 mg/kg/injection, schedule: Q01DX009 (ip), vehicle: saline with Tween-80.
[7] abbreviates: dose: 100.0 mg/kg/injection, schedule: Q04DX003 (ip), vehicle: saline with Tween-80.
[8] abbreviates: dose: 75.0 mg/kg/injection, schedule: Q01DX001 (ip), vehicle: saline.
Where [9] appears, read: dose: 150.0 mg/kg/injection, schedule: Q01DX001 (ip), vehicle: saline.
Where [10] appears, read: dose: 200.0 mg/kg/injection, schedule: Q01DX009 (ip), vehicle: saline with Tween-80.
The mark [11] stands for this setting: dose: 6.25 mg/kg/injection, schedule: Q01DX005 (ip), vehicle: water.
Where [12] appears, read: dose: 12.5 mg/kg/injection, schedule: Q01DX005 (ip), vehicle: water.
Setting [13] is: dose: 25.0 mg/kg/injection, schedule: Q01DX005 (ip), vehicle: water.
Where [14] appears, read: dose: 50.0 mg/kg/injection, schedule: Q01DX005 (ip), vehicle: water.
Setting [15] is: dose: 12.5 mg/kg/injection, schedule: Q01DX009 (ip), vehicle: water.
The mark [16] stands for this setting: dose: 25.0 mg/kg/injection, schedule: Q01DX009 (ip), vehicle: water.
[17] abbreviates: dose: 50.0 mg/kg/injection, schedule: Q01DX009 (ip), vehicle: water.

Values joined by “and” are separate entries in the source; they are usually repeats but may differ in a detail not shown here. Equal values may be shown once. Toxic doses and inconclusive results are not listed.

As to `C1CCC2C[N-]CCC2C1.C1CCC2C[N-]CCC2C1.C1CCC2C[N-]CCC2C1.C1CCC2C[N-]CCC2C1.[Cl][Rh][Cl]` (stereo not drawn), the T/C was 98 % of control (dose: 0.25 mg/kg/injection, schedule: Q01DX009 (ip), vehicle: saline); 92 % of control (dose: 0.5 mg/kg/injection, schedule: Q01DX009 (ip), vehicle: saline with Tween-80); 104 % of control (dose: 0.5 mg/kg/injection, schedule: Q01DX009 (ip), vehicle: saline); 96 % of control (dose: 1.0 mg/kg/injection, schedule: Q01DX009 (ip), vehicle: saline with Tween-80); 104 % of control (dose: 1.0 mg/kg/injection, schedule: Q01DX009 (ip), vehicle: saline); 96 % of control (dose: 2.0 mg/kg/injection, schedule: Q01DX009 (ip), vehicle: saline with Tween-80). The T/C is 105 % of control (dose: 2.0 mg/kg/injection, schedule: Q01DX009 (ip), vehicle: saline); 113 % of control (dose: 4.0 mg/kg/injection, schedule: Q01DX009 (ip), vehicle: saline); 115 % of control (dose: 8.0 mg/kg/injection, schedule: Q01DX009 (ip), vehicle: saline).

With `CC1=NCCc2ccccc21`, the T/C is, setting by setting: (dose: 12.5 mg/kg/injection, schedule: Q04DX003 (ip), vehicle: saline) 102 % of control; (dose: 25.0 mg/kg/injection, schedule: Q04DX003 (ip), vehicle: saline) 93 % of control.

As for `COC(=O)C(NC(=O)Cc1ccccc1)C(C)(C)S` (stereo not drawn), the T/C runs as follows: under setting [1], 102 % of control; under setting [2], 102 % of control; under setting [3], 102 % of control.

On to `C[N+](C)(CCO)Cc1ccccc1`, for which the T/C under setting [4] is 102 % of control; the T/C (dose: 25.0 mg/kg/injection, schedule: Q04DX003 (ip), vehicle: saline with Tween-80) is 97 % of control; the T/C under setting [5] was 105 % of control; the T/C (dose: 50.0 mg/kg/injection, schedule: Q04DX003 (ip), vehicle: saline with Tween-80) is 100 % of control; the T/C under setting [6] was 105 % of control; the T/C under setting [7] was 96 % of control and 101 % of control.

For the compound `CCOC(=O)/C(C#N)=C1/C=CCCC1`, the T/C under setting [8] is 97 % of control; the T/C under setting [9] is 104 % of control; the T/C (dose: 300.0 mg/kg/injection, schedule: Q01DX001 (ip), vehicle: saline) is 97 % of control.

Take `CCC(C)(O)c1ccccc1` (stereo not drawn): the T/C under setting [5] was 103 % of control, the T/C under setting [6] is 100 % of control and the T/C under setting [10] was 95 % of control.

On to `N#Cc1cn(C2OC(CO)C(O)C2O)c2nc(NN)nc(N)c12` (stereo not drawn), for which the T/C reads like this: (dose: 1.56 mg/kg/injection, schedule: Q01DX005 (ip), vehicle: water) 105 % of control; (dose: 3.13 mg/kg/injection, schedule: Q01DX005 (ip), vehicle: water) 105 % of control; under setting [11], 107 % of control; under setting [12], 108 % of control; under setting [13], 110 % of control; under setting [14], 121 % of control. Moreover, the T/C (dose: 100.0 mg/kg/injection, schedule: Q01DX005 (ip), vehicle: water) was 96 % of control.

With `Cc1ccc(/C(C#N)=C/c2ccc3c(c2)OCO3)cc1`, the T/C was 94 % of control under setting [1], 97 % of control under setting [2] and 91 % of control under setting [3].

As for `CCCCOC(=O)COc1c(Cl)ccc(Cl)c1Cl`, the T/C under setting [1] was 102 % of control and the T/C under setting [2] is 95 % of control.

Regarding `CC(C(=O)NN)C(O)C(C)(C)O` (stereo not drawn), the T/C runs as follows: under setting [7], 96 % of control; (dose: 200.0 mg/kg/injection, schedule: Q04DX003 (ip), vehicle: saline with Tween-80) 96 % of control; (dose: 400.0 mg/kg/injection, schedule: Q04DX003 (ip), vehicle: saline with Tween-80) 103 % of control.

As for `O=C1C=CC(=O)C(Br)C1Br` (stereo not drawn), the T/C is, setting by setting: (dose: 37.5 mg/kg/injection, schedule: Q01DX009 (ip), vehicle: saline) 93 % of control; (dose: 37.5 mg/kg/injection, schedule: Q04DX003 (ip), vehicle: saline) 95 % of control; under setting [8], 97 % of control; (dose: 75.0 mg/kg/injection, schedule: Q01DX009 (ip), vehicle: saline) 93 % of control; (dose: 75.0 mg/kg/injection, schedule: Q04DX003 (ip), vehicle: saline) 103 % of control; under setting [9], 101 % of control. For the same compound, the T/C by setting is: (dose: 150.0 mg/kg/injection, schedule: Q01DX009 (ip), vehicle: saline) 94 % of control; (dose: 150.0 mg/kg/injection, schedule: Q04DX003 (ip), vehicle: saline) 93 % of control.

Consider `Cc1ccc(/C=N/NC(=O)CNC(=O)Nc2cccc(C(F)(F)F)c2)cc1`, for which the T/C by setting is: under setting [5], 92 % of control; under setting [6], 88 % of control; under setting [10], 92 % of control.

With `Cc1nnnn1C12CC3CC(CC(C3)C1)C2`, the T/C (dose: 9.4 mg/kg/injection, schedule: Q01DX009 (ip), vehicle: saline with Tween-80) is 94 % of control.

Regarding `C=C(COC(C)(C)C)CN(C)C`, the T/C under setting [5] is 98 % of control and the T/C under setting [6] was 104 % of control.

Turning to `CCC(/C=C/C(C)C1CCC2C3CC=C4CC(O)CCC4(C)C3CCC12C)C(C)C` (stereo not drawn) (tested in a mixture with another compound), the T/C by setting is: (dose: 12.5 mg/kg/injection, schedule: Q01DX001 (ip), vehicle: water) 97 % of control; under setting [15], 100 % of control; (dose: 25.0 mg/kg/injection, schedule: Q01DX001 (ip), vehicle: water) 97 % of control; (dose: 25.0 mg/kg/injection, schedule: Q01DX009 (ip), vehicle: other) 94 % of control; under setting [16], 103 % of control; (dose: 50.0 mg/kg/injection, schedule: Q01DX001 (ip), vehicle: water) 102 % of control. Further, the T/C is, setting by setting: (dose: 50.0 mg/kg/injection, schedule: Q01DX009 (ip), vehicle: other) 91 % of control; under setting [17], 96 % of control; under setting [6], 94 % of control; under setting [10], 89 % of control.

For `[N-]=[N+]=NCc1cn(C2CC(O)C(CO)O2)c(=O)[nH]c1=O` (stereo not drawn), the T/C under setting [11] was 91 % of control, the T/C under setting [12] was 111 % of control, the T/C under setting [13] is 103 % of control and the T/C under setting [14] was 100 % of control.

With `CSc1ccccc1C1=CCCCCC1`, the T/C runs as follows: under setting [5], 103 % of control; (dose: 100.0 mg/kg/injection, schedule: Q01DX001 (ip), vehicle: saline with Tween-80) 96 % of control; under setting [6], 93 % of control; (dose: 200.0 mg/kg/injection, schedule: Q01DX001 (ip), vehicle: saline with Tween-80) 94 % of control; under setting [10], 94 % of control.

Take `CCS(=O)(=O)Nc1ccc(Nc2c3ccccc3nc3ccccc23)c(OC)c1`: the T/C (dose: 5.0 mg/kg/injection, schedule: Q01DX009 (ip), vehicle: saline) was 156 % of control.

Turning to `O=c1ccn(C2OC(CO)C(O)C2O)c(C2SCCCS2)n1` (stereo not drawn), the T/C is 90 % of control (dose: 9.38 mg/kg/injection, schedule: Q01DX005 (ip), vehicle: water); 93 % of control (dose: 18.75 mg/kg/injection, schedule: Q01DX005 (ip), vehicle: water); 93 % of control (dose: 37.5 mg/kg/injection, schedule: Q01DX005 (ip), vehicle: water); 96 % of control (dose: 75.0 mg/kg/injection, schedule: Q01DX005 (ip), vehicle: water); 96 % of control (dose: 150.0 mg/kg/injection, schedule: Q01DX005 (ip), vehicle: water).

As for `c1cc2c(c(NC3=NCCN3)c1)CCCC2`, the T/C by setting is: (dose: 12.5 mg/kg/injection, schedule: Q01DX009 (ip), vehicle: saline with Tween-80) 96 % of control; under setting [4], 100 % of control; under setting [5], 111 % of control.

Take `CC1=NC(c2ccccn2)=NNC(c2ccccn2)=C1c1ccccc1`: the T/C under setting [15] was 98 % of control; the T/C under setting [16] was 96 % of control; the T/C under setting [17] is 98 % of control; the T/C (dose: 100.0 mg/kg/injection, schedule: Q01DX009 (ip), vehicle: water) was 86 % of control; the T/C (dose: 200.0 mg/kg/injection, schedule: Q01DX009 (ip), vehicle: water) is 90 % of control.
